From ChEMBL document CHEMBL4483862, “Open-source discovery of chemical leads for next-generation chemoprotective antimalarials” (2018)

System: Plasmodium berghei
Test: Luciferase/luciferin-expressing antifolate-resistant parasites were used to infect a culture of HepG2 cells that were pre-incubated with compounds. Infected hepatocytes emit light due to the luciferase reaction. Assay results are presented as the percent inhibition of light emission compared to control. […]
Type: functional
Conditions: sporozoite; for IC90: read-out: LUCIFERASE INFECTION ASSAY - IC90
[1] = read-out: LUCIFERASE INFECTION ASSAY - IC50

Row | Compound | IC90 | further results
1 | Cc1cc(=O)nc(N/N=C/c2c(C)nn(-c3cccc(C(F)(F)F)c3)c2Cl)[nH]1 | 8.03 µM | IC50 (HEPG2TOX_HILL_SLOPE 9.49, HEPG2TOX_R_SQUARED 0.952, PBLUC_HILL_SLOPE 2.17, PBLUC_R_SQUARED 0.422, read-out: LUCIFERASE INFECTION ASSAY - IC50): 2.91 µM
2 | Cc1ccnc(NC(c2ccccn2)c2ccc3cccnc3c2O)c1 (stereo not drawn) | > 9.64 µM | IC50 (FFLUC_HILL_SLOPE 17.7, FFLUC_R_SQUARED 0.0708, HEPG2TOX_HILL_SLOPE 10.6, HEPG2TOX_R_SQUARED 0.571, PBLUC_HILL_SLOPE 38.3, PBLUC_R_SQUARED 0.424, read-out: LUCIFERASE INFECTION ASSAY - IC50): 9.27 µM
3 | CN1CCN(c2ccccc2NC(=O)c2cccc(Oc3ccccc3)c2)CC1 | 5.25 µM | IC50 (PBLUC_HILL_SLOPE 1.09, PBLUC_R_SQUARED 0.715, read-out: LUCIFERASE INFECTION ASSAY - IC50): 0.704 µM
4 | CNc1nc2cnc(Nc3ccc(Oc4ccccc4)cc3)cc2n1C | > 10 µM | IC50 [1]: > 10 µM
5 | C=CCNc1sc(C(=O)/C(C#N)=C2\Nc3ccccc3S2)c(N)c1C(=O)Nc1ccc(Cl)cc1 | 4.13 µM | IC50 (FFLUC_HILL_SLOPE 4, FFLUC_R_SQUARED 0.164, HEPG2TOX_HILL_SLOPE 6.65, HEPG2TOX_R_SQUARED 0.57, PBLUC_HILL_SLOPE 11, PBLUC_R_SQUARED 0.696, read-out: LUCIFERASE INFECTION ASSAY - IC50): 3.38 µM
6 | CCN1C(=O)N(Cc2cccc(OC)c2)C(=O)C12CCN(Cc1ccc3c(c1)Cc1ccccc1-3)CC2 | > 6.66 µM | IC50 (HEPG2TOX_HILL_SLOPE 11.9, HEPG2TOX_R_SQUARED 0.897, PBLUC_HILL_SLOPE 2.37, PBLUC_R_SQUARED 0.639, read-out: LUCIFERASE INFECTION ASSAY - IC50): 3.29 µM
7 | Nc1c(C(=O)c2ccc3c(c2)NC(=O)CO3)sc2c1c(=O)[nH]c(=O)n2Cc1ccccc1 | > 10 µM | IC50 (HEPG2TOX_HILL_SLOPE 15, HEPG2TOX_R_SQUARED 0.948, PBLUC_HILL_SLOPE 0.935, PBLUC_R_SQUARED 0.804, read-out: LUCIFERASE INFECTION ASSAY - IC50): 1.58 µM
8 | CCOc1ccc2c(c1)sc(=N)n2Cc1ccc(Cl)cc1 | > 10 µM | IC50 (PBLUC_HILL_SLOPE 3.98, PBLUC_R_SQUARED 0.233, read-out: LUCIFERASE INFECTION ASSAY - IC50): 6.2 µM
9 | Cc1noc(N)c1C(=O)OCc1cccc2cccnc12 | > 10 µM | IC50 (HEPG2TOX_HILL_SLOPE 10.3, HEPG2TOX_R_SQUARED 0.154, PBLUC_HILL_SLOPE 14, PBLUC_R_SQUARED 0.377, read-out: LUCIFERASE INFECTION ASSAY - IC50): 9.17 µM
10 | COc1ccc(-c2cnc3cnc(-c4cnn(Cc5ccccc5)c4)cn23)cc1 | > 8.65 µM | IC50 (PBLUC_HILL_SLOPE 2.08, PBLUC_R_SQUARED 0.432, read-out: LUCIFERASE INFECTION ASSAY - IC50): 7.68 µM
11 | CC(Nc1ncnc2ccsc12)c1cccc2ccccc12 (stereo not drawn) | > 10 µM | IC50 [1]: 2.13 µM
12 | CC(=O)N(c1nc(/C=C2\NC(=S)NC2=O)cs1)c1c(C)cccc1C | > 10 µM | IC50 [1]: 8.24 µM
13 | CC(=O)c1c(C)[nH]c(C(=O)Nc2ccc3ccccc3n2)c1C | 1.16 µM | IC50 [1]: 0.934 µM
14 | CS(=O)(=O)Nc1cccc(-c2cn3c(-c4ccc(Cl)cc4)cnc3cn2)c1 | 1.05 µM | IC50 (HEPG2TOX_HILL_SLOPE 10.9, HEPG2TOX_R_SQUARED 0.801, PBLUC_HILL_SLOPE 12.2, PBLUC_R_SQUARED 0.805, read-out: LUCIFERASE INFECTION ASSAY - IC50): 0.873 µM
15 | N#Cc1ccc(CNC(=S)Nc2ccc(Cl)c(Cl)c2)cc1 | 9.71 µM | IC50 (HEPG2TOX_HILL_SLOPE 2.37, HEPG2TOX_R_SQUARED 0.471, PBLUC_HILL_SLOPE 2.37, PBLUC_R_SQUARED 0.613, read-out: LUCIFERASE INFECTION ASSAY - IC50): 3.85 µM
16 | c1ccc(-c2cn3c(-c4ccc5c(c4)OCO5)cnc3cn2)cc1 | > 10.5 µM | IC50 (HEPG2TOX_HILL_SLOPE 0.346, HEPG2TOX_R_SQUARED 0.507, PBLUC_HILL_SLOPE 2.83, PBLUC_R_SQUARED 0.466, read-out: LUCIFERASE INFECTION ASSAY - IC50): 9.02 µM
17 | N#CC(Nc1cc(C(F)(F)F)cc(C(F)(F)F)c1)c1ccccc1 (stereo not drawn) | > 9.59 µM | IC50 [1]: 7.17 µM
18 | CN(C)c1ccc(CNCC2(c3ccnc(-c4cccc(N(C)C)c4)c3)CC2)cc1 | > 10 µM | IC50 (PBLUC_HILL_SLOPE 3.17, PBLUC_R_SQUARED 0.141, read-out: LUCIFERASE INFECTION ASSAY - IC50): 9.64 µM
19 | CN(Cc1ccc(-c2ccc(Cl)cc2)o1)Cc1nnc2n(C)c(=O)c3ccccc3n12 | > 10 µM | IC50 [1]: > 10 µM
20 | CC(=O)Nc1cccc(-c2cnc3ccc(-c4ccc(S(C)(=O)=O)cc4)nn23)c1 | 9.62 µM | IC50 (HEPG2TOX_HILL_SLOPE 0.982, HEPG2TOX_R_SQUARED 0.906, PBLUC_HILL_SLOPE 3.7, PBLUC_R_SQUARED 0.22, read-out: LUCIFERASE INFECTION ASSAY - IC50): 5.31 µM

Row | Compound | IC90 | further results
21 | CCN(c1ccc(NC(=S)Nc2cccc3ccccc23)cc1)C(C)C | > 10 µM | IC50 (HEPG2TOX_HILL_SLOPE 1.56, HEPG2TOX_R_SQUARED 0.289, PBLUC_HILL_SLOPE 3.28, PBLUC_R_SQUARED 0.342, read-out: LUCIFERASE INFECTION ASSAY - IC50): 5.97 µM
22 | O=C(NCc1ccccn1)c1ccc2nc3n(c2c1)CCC3 | > 10 µM | IC50 [1]: > 10 µM
23 | CC(C)CNc1cc(N2CCN(C)CC2)c(N)c2c1C(=O)c1ccccc1C2=O | > 8.41 µM | IC50 [1]: > 8.41 µM
24 | OC(c1cc(F)c(F)c(F)c1)c1nnc(Nc2cc(C(F)(F)F)ccc2F)s1 (stereo not drawn) | 7.5 µM | IC50 (PBLUC_HILL_SLOPE 4.45, PBLUC_R_SQUARED 0.324, read-out: LUCIFERASE INFECTION ASSAY - IC50): 4.58 µM
25 | CC(C)c1cc(C(=O)Nc2nnc3ccccn23)c2cnn(C(C)C)c2n1 | 4.31 µM | IC50 (HEPG2TOX_HILL_SLOPE 0.96, HEPG2TOX_R_SQUARED 0.828, PBLUC_HILL_SLOPE 9.22, PBLUC_R_SQUARED 0.235, read-out: LUCIFERASE INFECTION ASSAY - IC50): 3.4 µM
26 | Cn1nc(C(C)(C)C)cc1C(=O)Nc1ccc2nc(-c3cccnc3)nn2c1 | > 10 µM | IC50 (PBLUC_HILL_SLOPE 11.9, PBLUC_R_SQUARED 0.235, read-out: LUCIFERASE INFECTION ASSAY - IC50): > 10 µM
27 | CC(C)(C)C(=O)/C=c1\[nH]c(=O)/c(=C/c2cc(F)cc3c2OCOC3)s1 | > 10 µM | IC50 (PBLUC_HILL_SLOPE 2.84, PBLUC_R_SQUARED 0.665, read-out: LUCIFERASE INFECTION ASSAY - IC50): 6.37 µM
28 | COc1ccccc1N1CCN(C(=O)c2cc3cc(Cl)ccc3o2)CC1 | > 8.9 µM | IC50 [1]: > 8.9 µM
29 | CCOC(=O)c1c(C)[nH]c(C(=O)Nc2nc(-c3c(C)cc(C)cc3C)cs2)c1C | 9.66 µM | IC50 (FFLUC_HILL_SLOPE 12.1, FFLUC_R_SQUARED 0.461, HEPG2TOX_HILL_SLOPE 1.22, HEPG2TOX_R_SQUARED 0.98, PBLUC_HILL_SLOPE 1.25, PBLUC_R_SQUARED 0.783, read-out: LUCIFERASE INFECTION ASSAY - IC50): 1.65 µM
30 | CC(OC(=O)c1cc([N+](=O)[O-])ccc1N(C)C)C(=O)Nc1ccc(Cl)cn1 (stereo not drawn) | 1.83 µM | IC50 (HEPG2TOX_HILL_SLOPE 1.79, HEPG2TOX_R_SQUARED 0.979, PBLUC_HILL_SLOPE 1.96, PBLUC_R_SQUARED 0.845, read-out: LUCIFERASE INFECTION ASSAY - IC50): 0.596 µM
31 | CN(C)c1ccc(C(c2cc(C(C)(C)C)c(O)c(C(C)(C)C)c2)N2CCN(CCO)CC2)cc1 (stereo not drawn) | > 10 µM | IC50 (FFLUC_HILL_SLOPE 1.7, FFLUC_R_SQUARED 0.646, PBLUC_HILL_SLOPE 0.736, PBLUC_R_SQUARED 0.152, read-out: LUCIFERASE INFECTION ASSAY - IC50): > 10 µM
32 | NC(CCc1ccccc1)c1csc(NC(=O)Nc2ccccc2-c2ccccc2)n1 (stereo not drawn) | 7.05 µM | IC50 (PBLUC_HILL_SLOPE 12.2, PBLUC_R_SQUARED 0.388, read-out: LUCIFERASE INFECTION ASSAY - IC50): 5.88 µM
33 | O=C(NC(c1ccccc1)c1ccccc1)[C@@H]1C[C@@H](OCc2ccccc2)CN1CC1CCCCC1 | > 6.84 µM | IC50 (FFLUC_HILL_SLOPE 11.2, FFLUC_R_SQUARED 0.284, read-out: LUCIFERASE INFECTION ASSAY - IC50): > 6.84 µM
34 | Oc1ccc(/C=N/n2c(-c3ccco3)cs/c2=N\c2ccc(F)cc2F)c(O)c1 | > 10 µM | IC50 (PBLUC_HILL_SLOPE 8.45, PBLUC_R_SQUARED 0.234, read-out: LUCIFERASE INFECTION ASSAY - IC50): 8.99 µM
35 | Brc1ccc(-[n+]2nc(-c3ccccc3)nn2-c2nn[nH]n2)cc1 | 4.45 µM | IC50 (HEPG2TOX_HILL_SLOPE 1.48, HEPG2TOX_R_SQUARED 0.648, PBLUC_HILL_SLOPE 2.42, 13.8, PBLUC_R_SQUARED 0.208, 0.342, read-out: LUCIFERASE INFECTION ASSAY - IC50): 2.56 µM
36 | C/C(=N\NC(=S)Nc1cccc(C(F)(F)F)c1)c1cc(Cl)ccc1O | > 8.51 µM | IC50 (HEPG2TOX_HILL_SLOPE 6.81, HEPG2TOX_R_SQUARED 0.836, PBLUC_HILL_SLOPE 11, PBLUC_R_SQUARED 0.0541, read-out: LUCIFERASE INFECTION ASSAY - IC50): 7.79 µM
37 | COc1ccc(C)cc1N1CC(C(=O)Nc2nc3ccccc3[nH]2)CC1=O (stereo not drawn) | 4.27 µM | IC50 (HEPG2TOX_HILL_SLOPE 2.88, HEPG2TOX_R_SQUARED 0.929, PBLUC_HILL_SLOPE 3.77, PBLUC_R_SQUARED 0.362, read-out: LUCIFERASE INFECTION ASSAY - IC50): 2.38 µM
38 | CN1/C(=C/C=C/c2ccc3ccccc3[n+]2C)C=Cc2ccccc21 | 2.78 µM | IC50 [1]: 2.47 µM
39 | O=c1nc2n(c3ccccc13)CC/C2=C\c1ccc(Cl)cc1 | > 10.7 µM | IC50 [1]: > 10.7 µM
